According to ChEMBL document CHEMBL3217457, “Carbazolepyrrolo[2,1-c][1,4]benzodiazepine conjugates: design, synthesis, and biological evaluation” (Medchemcomm, 2011):

Columns and labels:
HT-29 = experiment: Growth inhibition of human HT-29 cells; type: functional
MCF7 [1] = experiment: Cell cycle arrest in human MCF7 cells assessed as accumulation at G1 phase at 4 uM after 24 hrs by propidium iodide staining based flow cytometry (reference value: 57.98%); type: functional
[2] = Growth inhibition of human Gurav cells; type: functional
SiHa = experiment: Growth inhibition of human SiHa cells; type: functional
[3] = Growth inhibition of human MDA-MB cells; type: functional
MCF7 [4] = experiment: Cell cycle arrest in human MCF7 cells assessed as accumulation at G0 phase at 4 uM after 24 hrs by propidium iodide staining based flow cytometry (reference value: 2.77%); type: functional
SR = experiment: Growth inhibition of human SR cells; type: functional
T47D = experiment: Growth inhibition of human T47D cells; type: functional
[5] = Growth inhibition of human HOP92 cells; type: functional; settings: HOP-92
[6] = Growth inhibition of human MOLT4 cells; type: functional; settings: MOLT-4
KB = experiment: Growth inhibition of human KB cells; type: functional
[7] = Growth inhibition of human UO31 cells; type: functional; settings: UO-31
786-0 = experiment: Growth inhibition of human 786-0 cells; type: functional
A498 = experiment: Growth inhibition of human A498 cells; type: functional
MCF7 [8] = experiment: Cell cycle arrest in human MCF7 cells assessed as accumulation at G2/M phase at 4 uM after 24 hrs by propidium iodide staining based flow cytometry (reference value: 24.95%); type: functional
SK-MEL-2 = experiment: Growth inhibition of human SK-MEL-2 cells; type: functional
[9] = Growth inhibition of human OVCAR4 cells; type: functional; settings: OVCAR-4
A2780 = experiment: Growth inhibition of human A2780 cells; type: functional
[10] = Growth inhibition of human OVCAR5 cells; type: functional; settings: OVCAR-5
MCF7 [11] = experiment: Cell cycle arrest in human MCF7 cells assessed as accumulation at S phase at 4 uM after 24 hrs by propidium iodide staining based flow cytometry (reference value: 14.30%); type: functional
U-251 = experiment: Growth inhibition of human U251 cells; type: functional
[12] = Growth inhibition of human OVCAR8 cells; type: functional; settings: OVCAR-8
SF-268 = experiment: Growth inhibition of human SF268 cells; type: functional
NCI-H322M = experiment: Growth inhibition of human NCI-H322M cells; type: functional
CAKI-1 = experiment: Growth inhibition of human CAKI-1 cells; type: functional
MDA-MB-468 = experiment: Growth inhibition of human MDA-MB-468 cells; type: functional
MDA-MB-435 = experiment: Growth inhibition of human MDA-MB-435 cells; type: functional
NCI-H522 = experiment: Growth inhibition of human NCI-H522 cells; type: functional
[13] = Growth inhibition of human HCC2998 cells; type: functional; settings: HCC 2998
[14] = Growth inhibition of human BT549 cells; type: functional; settings: BT-549
[15] = Growth inhibition of human OVCAR3 cells; type: functional; settings: OVCAR-3
SK-MEL-5 = experiment: Growth inhibition of human SK-MEL-5 cells; type: functional
CCRF-CEM = experiment: Growth inhibition of human CCRF-CEM cells; type: functional
MCF7 [16] = experiment: Growth inhibition of human MCF7 cells; type: functional
SW-620 = experiment: Growth inhibition of human SW620 cells; type: functional
COLO 205 = experiment: Growth inhibition of human COLO205 cells; type: functional
SN12C = experiment: Growth inhibition of human SN12C cells; type: functional
HL-60(TB) = experiment: Growth inhibition of human HL-60(TB) cells; type: functional
A549 [17] = experiment: Growth inhibition of human A549 cells; type: functional
M14 = experiment: Growth inhibition of human M14 cells; type: functional
SNB-19 = experiment: Growth inhibition of human SNB19 cells; type: functional
SK-MEL-28 = experiment: Growth inhibition of human SK-MEL-28 cells; type: functional
PC-3 = experiment: Growth inhibition of human PC3 cells; type: functional
[18] = Growth inhibition of human UACC62 cells; type: functional; settings: UACC-62
[19] = Growth inhibition of human RXF393 cells; type: functional; settings: RXF 393
[20] = Growth inhibition of human HCT15 cells; type: functional; settings: HCT-15
[21] = Growth inhibition of human EKVX cells; type: functional
NCI-H460 = experiment: Growth inhibition of human NCI-H460 cells; type: functional
ACHN = experiment: Growth inhibition of human ACHN cells; type: functional
HOP-62 = experiment: Growth inhibition of human HOP62 cells; type: functional
A549 [22] = experiment: Growth inhibition of human A549/ATCC cells; type: functional
Calf thymus DNA = experiment: Binding affinity to calf thymus DNA assessed as change in melting temperature at compound to DNA ratio of 1:5 after 18 hrs by thermal denaturation analysis; type: nucleic-acid assay; settings: Bos taurus
Malme-3M = experiment: Growth inhibition of human MALME-3M cells; type: functional
IGROV-1 = experiment: Growth inhibition of human IGROV1 cells; type: functional
KM12 = experiment: Growth inhibition of human KM12 cells; type: functional
[23] = Growth inhibition of human SF539 cells; type: functional; settings: SF-539
SNB-75 = experiment: Growth inhibition of human SNB75 cells; type: functional
SK-OV-3 = experiment: Growth inhibition of human SKOV3 cells; type: functional
NCI-H226 = experiment: Growth inhibition of human NCI-H226 cells; type: functional
[24] = Growth inhibition of human Hs 578T cells; type: functional
MCF7 [25] = experiment: Cell cycle arrest in human MCF7 cells assessed as accumulation at G0/G1 phase at 4 uM after 24 hrs by propidium iodide staining based flow cytometry (reference value: 60.75%); type: functional
[26] = Growth inhibition of human UACC257 cells; type: functional; settings: UACC-257
K562 = experiment: Growth inhibition of human K562 cells; type: functional
[27] = Growth inhibition of human LOXIMVI cells; type: functional; settings: LOX IMVI
DU-145 = experiment: Growth inhibition of human DU145 cells; type: functional
ZR-75-1 = experiment: Growth inhibition of human ZR-75-1 cells; type: functional
NCI-H23 = experiment: Growth inhibition of human NCI-H23 cells; type: functional
HCT-116 = experiment: Growth inhibition of human HCT116 cells; type: functional
RPMI-8226 = experiment: Growth inhibition of human RPMI8226 cells; type: functional
TK-10 = experiment: Growth inhibition of human TK10 cells; type: functional

SMILES: COc1cc2c(cc1OCCCCCn1c3ccccc3c3ccccc31)N=C[C@@H]1CCCN1C2=O
- GI50 (HT-29): 2080 nM
- Activity (MCF7 [1]): 68.24%
- GI50 [2]: 1610 nM
- GI50 (SiHa): 1680 nM
- GI50 [3]: 2140 nM
- Activity (MCF7 [4]): 3.45%
- GI50 (SR): 1540 nM
- GI50 (T47D): 2790 nM
- GI50 [5]: 1310 nM
- GI50 [6]: 2150 nM
- GI50 (KB): 1800 nM
- GI50 [7]: 1520 nM
- GI50 (786-0): 1730 nM
- GI50 (A498): 1740 nM
- Activity (MCF7 [8]): 15.38%
- GI50 (SK-MEL-2): 1670 nM
- GI50 [9]: 3.09 µM
- GI50 (A2780): 1320 nM
- GI50 [10]: 2420 nM
- Activity (MCF7 [11]): 13.03%
- GI50 (U-251): 1590 nM
- GI50 [12]: 2550 nM
- GI50 (SF-268): 1910 nM
- GI50 (NCI-H322M): 3.83 µM
- GI50 (CAKI-1): 1930 nM
- GI50 (MDA-MB-468): 2260 nM
- GI50 (MDA-MB-435): 1730 nM
- GI50 (NCI-H522): 1650 nM
- GI50 [13]: 1710 nM
- GI50 [14]: 2030 nM
- GI50 [15]: 1880 nM
- GI50 (SK-MEL-5): 1730 nM
- GI50 (CCRF-CEM): 1970 nM
- GI50 (MCF7 [16]): 1640 nM
- GI50 (SW-620): 1850 nM
- GI50 (COLO 205): 1640 nM
- GI50 (SN12C): 1940 nM
- GI50 (HL-60(TB)): 1720 nM
- GI50 (A549 [17]): 1420 nM
- GI50 (M14): 2100 nM
- GI50 (SNB-19): 2050 nM
- GI50 (SK-MEL-28): 1800 nM
- GI50 (PC-3): 2300 nM
- GI50 [18]: 1860 nM
- GI50 [19]: 4.34 µM
- GI50 [20]: 1670 nM
- GI50 [21]: 5.27 µM
- GI50 (NCI-H460): 1960 nM
- GI50 (ACHN): 1770 nM
- GI50 (HOP-62): 1800 nM
- GI50 (A549 [22]): 1570 nM
- ΔTm (Calf thymus DNA): 4.9 °C
- GI50 (Malme-3M): 2200 nM
- GI50 (IGROV-1): 2080 nM
- GI50 (KM12): 1960 nM
- GI50 [23]: 1850 nM
- GI50 (SNB-75): 1050 nM
- GI50 (SK-OV-3): 4.57 µM
- GI50 (NCI-H226): 2490 nM
- GI50 [24]: 1970 nM
- Activity (MCF7 [25]): 71.69%
- GI50 [26]: 2290 nM
- GI50 (K562): 2600 nM
- GI50 [27]: 2080 nM
- GI50 (DU-145): 2230 nM
- GI50 (ZR-75-1): 1760 nM
- GI50 (NCI-H23): 2690 nM
- GI50 (HCT-116): 1650 nM
- GI50 (RPMI-8226): 1720 nM
- GI50 (TK-10): 2250 nM
